# Like-named read-outs stand apart in the source and are kept apart here.
# Target: HumRADA2 (Pyrococcus furiosus, UniProt O74036, D220A/DEL288-314/E219S/I169M/K221M/V202Y/Y201A)
# Experiment: Isothermal titration calorimetry (ITC), direct binding to HumRADA2
# Details: for LLE: LLE=pKD−clog P, clog P calculated with Instant JChem (ChemAxon); for KD: ITC, substituted tryptamine sulfonamide series (Table 2), error from fitting a single-site binding model; for -TDS / DG / DH: ITC thermodynamic binding profile, Table S1
# Excerpt: We previously published fragment-screening results using a humanised RAD51 surrogate from Pyrococcus furiosus, which we refer to as HumRADA2 (previously referred to as MAYSAM RadA).[23] In this surrogate protein, the N-terminal domain with the oligomerisation sequence was removed to monomerise the protein and expose the FxxA binding site for screening, and six surface residues were mutated around the Phe pocket in order to humanise the protein in this region.
# Supplemental Experimental Procedures
# C-terminal ATPase domain of P. furiosus RadA (residues 108–349, with deletion of the “L2” loop residues 288–314) was expressed in E.coli and purified as described before using ion-exchange ad size exclusion chromatographies.[1] Purified protein was concentrated to 0.5 mM, flash frozen in liquid nitrogen and stored at -80C. Protein concentration was determined by measuring absorbance at 280 nm in 6M GndHCl and using calculated absorption coefficient […]
# Isothermal Titration Calorimetry
# ITC experiments were performed at 25°C on a MicroCal ITC-200 (GE Healthcare).
# HumRadA2 (humanized RadA) (600 µM in 20 mM MES pH 6.0 with 100 mM NaCl and 0.5 mM EDTA was diluted with Tris buffer (200 mM, pH 7.5 with 100 mM NaCl), and DMSO was added to match to the ligand solution. In titrations with ATP, 5 mM MgCl2 was included in the ligand buffer and the protein buffer. Compounds in DMSO were diluted into the same Tris buffer to give a final concentration of 0.6–10 mM ligand in 10% DMSO and Tris buffer. Care was taken to ensure that the DMSO concentrations in the protein and ligand solutions were well matched so as to avoid artefacts arising from heats of dilution of DMSO. In a typical experiment, protein (60 µM) was loaded in the sample cell, and 16 injections (2.4 µL) of 4.8 s duration were made at 80 s intervals from a syringe loaded with ligand (0.6–10 mM) and rotating at 1000 rpm. In all titrations, an initial injection of ligand (0.4 µL) was made and discarded during data analysis. Control titrations of ligand to buffer were performed and […]
# The thermodynamic parameters were obtained by fitting the data to a single-site-binding model by using Origin software and fixing the stoichiometry as 1.0 for […]
# [1] = tryptophan ester series (Table 1)
# [2] = substituted tryptamine series (Table 2)
Structure (SMILES),Kd,LLE [1],LE (ligand efficiency) [1],LLE [2],LE (ligand efficiency) [2],further results
Cl.N[C@@H](Cc1c[nH]c2ccccc12)C(=O)OCCc1c[nH]c2ccccc12 [5 n],35 ± 9 µM,1.0,0.23 kcal mol−1 per heavy atom,,,
N[C@@H](Cc1c[nH]c2ccccc12)C(=O)OCCc1ccc(Br)cc1 [5 l],> 200 µM,,,,,
O=C(NC(Cc1c[nH]c2ccccc12)C(=O)OCCc1ccccc1)C1CCCCC1 (centres unmarked) [6 d],> 200 µM,,,,,
O=C(CCc1ccccc1)N[C@@H](Cc1c[nH]c2ccccc12)C(=O)OCCc1ccccc1 [6 e],> 200 µM,,,,,
CS(=O)(=O)NCCc1c[nH]c2ccccc12 [7 i],> 200 µM,,,,,KD: No activity was detectable
Cl.N[C@@H](Cc1c[nH]c2ccccc12)C(=O)OCc1ccccc1 [5 b],200 ± 8 µM,0.7,0.23 kcal mol−1 per heavy atom,,,
O=S(=O)(NCCc1c[nH]c2ccccc12)c1cccs1 [7 j],16 ± 6 µM,,,1.9,0.33 kcal mol−1 per heavy atom,
O=S(=O)(NCCc1c[nH]c2ccccc12)c1ccc(Br)s1 [7 k],10 ± 1 µM,,,1.2,0.32 kcal mol−1 per heavy atom,
N[C@@H](Cc1c[nH]c2ccccc12)C(=O)NCCc1ccccc1 [5 e],> 200 µM,,,,,
O=[N+]([O-])c1cccc(S(=O)(=O)NCCc2c[nH]c3ccccc23)c1 [7 e],18 ± 4 µM,,,1.9,0.27 kcal mol−1 per heavy atom,
O=C(N[C@@H](Cc1c[nH]c2ccccc12)C(=O)OCCc1ccccc1)c1cccc([N+](=O)[O-])c1 [6 c],> 200 µM,,,,,
O=S(=O)(NCCc1c[nH]c2ccccc12)c1ccc(Br)cc1 [7 c],92 ± 22 µM,,,0.4,0.25 kcal mol−1 per heavy atom,
Cl.N[C@@H](Cc1c[nH]c2ccccc12)C(=O)OCCCc1ccccc1 [5 d],160 ± 7 µM,0.02,0.22 kcal mol−1 per heavy atom,,,
CNC(=O)C(Cc1c[nH]c2ccccc12)NC(C)=O (centres unmarked) [compound 4],890 ± 15 µM,2.6,0.22 kcal mol−1 per heavy atom,,,-TDS: 1.6 kcal/mol; DG: -4.2 kcal/mol; DH: -5.8 kcal/mol
CC(=O)N[C@@H](Cc1c[nH]c2ccccc12)C(=O)OCCc1ccccc1F [6 b],18 ± 1 µM,1.5,0.25 kcal mol−1 per heavy atom,,,
CNC(=O)C(N)Cc1c[nH]c2ccccc12 (centres unmarked) [compound 2],1500 ± 24 µM,2.2,0.24 kcal mol−1 per heavy atom,,,-TDS: 1.3 kcal/mol; DG: -3.8 kcal/mol; DH: -5.1 kcal/mol
O=S(=O)(NCCc1c[nH]c2ccccc12)c1ccccc1 [7 a],28 ± 6 µM,,,1.6,0.30 kcal mol−1 per heavy atom,
"Nc1ncnc2c1ncn2[C@@H]1O[C@H](COP(=O)(O)OP(=O)(O)OP(=O)(O)O)[C@@H](O)[C@H]1O [ATP, reference compound]",,,,,,"Kd (ITC against apo protein, in the absence of 5 c, read-out: KD): 2.5 µM"
Cc1ccc(CCOC(=O)C(N)Cc2c[nH]c3ccccc23)cc1 (centres unmarked) [5 j],22 ± 4 µM,0.8,0.26 kcal mol−1 per heavy atom,,,
O=S(=O)(NCCc1c[nH]c2ccccc12)c1ccc(Cl)s1 [7 l],13 ± 1 µM,,,1.3,0.32 kcal mol−1 per heavy atom,

Structure (SMILES),Kd,LLE [1],LE (ligand efficiency) [1],LLE [2],LE (ligand efficiency) [2],further results
O=C(NC(Cc1c[nH]c2ccccc12)C(=O)OCCc1ccccc1)c1ccccc1 (centres unmarked) [6 a],3 ± 1 µM,0.5,0.24 kcal mol−1 per heavy atom,,,-TDS: -4.2 kcal/mol; DG: -7.6 kcal/mol; DH: -3.4 kcal/mol
Cn1cnc(S(=O)(=O)NCCc2c[nH]c3ccccc23)c1 [7 s],420 ± 74 µM,,,1.8,0.22 kcal mol−1 per heavy atom,
Cl.N[C@@H](Cc1c[nH]c2ccccc12)C(=O)OCCc1ccccc1O [5 g],27 ± 12 µM,1.5,0.26 kcal mol−1 per heavy atom,,,
O=S(=O)(NCCc1c[nH]c2ccccc12)c1cc2ccccc2s1 [7 p],1.6 ± 0.6 µM,,,1.8,0.33 kcal mol−1 per heavy atom,
Nc1cccc(S(=O)(=O)NCCc2c[nH]c3ccccc23)c1 [7 f],31 ± 6 µM,,,2.4,0.28 kcal mol−1 per heavy atom,
Cc1ccccc1CCOC(=O)[C@@H](N)Cc1c[nH]c2ccccc12.Cl [5 h],30 ± 9 µM,0.7,0.26 kcal mol−1 per heavy atom,,,
COc1ccc(S(=O)(=O)NCCc2c[nH]c3ccccc23)cc1 [7 g],120 ± 10 µM,,,1.2,0.23 kcal mol−1 per heavy atom,
O=S(=O)(Cc1ccccc1)NCCc1c[nH]c2ccccc12 [7 b],> 200 µM,,,,,KD: No activity was detectable
O=S(=O)(NCCc1c[nH]c2ccccc12)c1ccco1 [7 r],18 ± 2 µM,,,2.6,0.32 kcal mol−1 per heavy atom,
Cc1cccc(CCOC(=O)[C@@H](N)Cc2c[nH]c3ccccc23)c1.Cl [5 i],30 ± 7 µM,0.7,0.26 kcal mol−1 per heavy atom,,,
COC(=O)C(Cc1c[nH]c2ccccc12)NC(C)=O (centres unmarked) [compound 3],810 ± 19 µM,2.0,0.22 kcal mol−1 per heavy atom,,,-TDS: 0.9 kcal/mol; DG: -4.2 kcal/mol; DH: -5.1 kcal/mol
Cl.N[C@@H](Cc1c[nH]c2ccccc12)C(=O)OCCc1ccccc1F [5 f],25 ± 5 µM,1.1,0.26 kcal mol−1 per heavy atom,,,
O=S(=O)(NCCc1c[nH]c2ccccc12)c1ccccc1Br [7 d],3.1 ± 0.1 µM,,,1.8,0.34 kcal mol−1 per heavy atom,
COc1ccc(CCOC(=O)[C@@H](N)Cc2c[nH]c3ccccc23)cc1 [5 k],> 200 µM,,,,,
Cl.N[C@@H](Cc1c[nH]c2ccccc12)C(=O)OCCC1CCCCC1 [5 m],28 ± 9 µM,0.8,0.27 kcal mol−1 per heavy atom,,,
O=S(=O)(NCCc1c[nH]c2ccccc12)c1cc(Br)c(Br)s1 [7 o],67 ± 29 µM,,,−0.4,0.27 kcal mol−1 per heavy atom,
Cl.N[C@@H](Cc1c[nH]c2ccccc12)C(=O)Oc1ccccc1 [5 a],190 ± 5 µM,0.7,0.24 kcal mol−1 per heavy atom,,,
O=S(=O)(NCCc1c[nH]c2ccccc12)c1c(Cl)sc(Cl)c1Br [7 n],2.3 ± 0.4 µM,,,0.6,0.33 kcal mol−1 per heavy atom,
Cc1noc(C)c1S(=O)(=O)NCCc1c[nH]c2ccccc12 [7 q],110 ± 12 µM,,,2.4,0.25 kcal mol−1 per heavy atom,
